In patent US20220296547A1, “METHODS AND COMPOSITIONS FOR TREATMENT OF DISEASES” (Tranexamic Technologies, LLC, priority 2020, published 2022):
Entries after “also recorded” stand apart in the source; their conditions may differ.

How the values were obtained:
[1] = tested on: human mammary epithelia cells (HMEC); experiment: DNA synthesis (tritiated thymidine incorporation); format: cell-based; details: HMEC non-transformed epithelial line; 24 h
[2] = tested on: programmed death-ligand 1 (PD-L1); experiment: PD-L1 expression (FIG. 18); format: cell-based; details: high concentration (2%)
non-melanoma skin cancer = details: mice, long-term UV irradiation; cited from earlier work
[3] = tested on: protein lysine acetylation in a second breast cancer cell line; experiment: Protein lysine acetylation over time (FIG. 10); format: cell-based; details: as early as 4 h
S6K1 (p70s6k) = experiment: Ribosomal S6 protein phosphorylation; format: cell-based
Source text: (§1) The N-Myc-related gene c-Myc, or MYC, is frequently overexpressed in many human cancers, including breast cancer.

[4] = tested on: histone lysine acetylation; experiment: Histone lysine acetylation in BT474 cells; format: cell-based
MDA-MB-468 cells = experiment: MTT cell viability assay (FIG. 2); format: cell-based, human; details: MDA-MB-468, known to overexpress MYC
[5] = tested on: SH-SY5Y neuroblastoma cells; experiment: MTT cell viability assay; format: cell-based
[6] = tested on: lysine acetylation of cellular proteins; experiment: Lysine acetylation of cellular proteins and histones (FIG. 8); format: cell-based
STAT3 = STAT3 phosphorylation; format: cell-based
Source text: as §1

histone H3 = experiment: Acetylation of histone H3 on lysine 27 and lysine 9; format: cell-based
[7] = tested on: AKT in MYC overexpressing MCF10A cells; experiment: AKT activity (phospho-AKT substrate antibody); format: cell-based, human
Source text: as §1

PAI-1 = PAI-1 levels in MDA-MB-231 breast cancer cell extracts; format: cell-based; details: FIG. 6
Source text: (§2) None of the treatments altered the overall pattern of protein tyrosine phosphorylation. […] Cleavage of CDCP1 may play a role in driving tumor invasion given the preferential binding of the cleaved form of CDCP1 with cell adhesion molecules such as beta1-integrin and E-cadherin.

CDCP1 cleavage = CDCP1 cleavage in MDA-MB-231 breast cancer cell extracts; format: cell-based
Source text: as §2

[8] = tested on: epidermal growth factor receptor (EGFR); experiment: EGFR expression (FIG. 8); format: cell-based
plasmin [9] = molecular target: T1, plasmin (Homo sapiens, UniProt P00747); details: accepted value from studies; cited from earlier work
Target sequence in this assay (P00747 20-810 limits assumed): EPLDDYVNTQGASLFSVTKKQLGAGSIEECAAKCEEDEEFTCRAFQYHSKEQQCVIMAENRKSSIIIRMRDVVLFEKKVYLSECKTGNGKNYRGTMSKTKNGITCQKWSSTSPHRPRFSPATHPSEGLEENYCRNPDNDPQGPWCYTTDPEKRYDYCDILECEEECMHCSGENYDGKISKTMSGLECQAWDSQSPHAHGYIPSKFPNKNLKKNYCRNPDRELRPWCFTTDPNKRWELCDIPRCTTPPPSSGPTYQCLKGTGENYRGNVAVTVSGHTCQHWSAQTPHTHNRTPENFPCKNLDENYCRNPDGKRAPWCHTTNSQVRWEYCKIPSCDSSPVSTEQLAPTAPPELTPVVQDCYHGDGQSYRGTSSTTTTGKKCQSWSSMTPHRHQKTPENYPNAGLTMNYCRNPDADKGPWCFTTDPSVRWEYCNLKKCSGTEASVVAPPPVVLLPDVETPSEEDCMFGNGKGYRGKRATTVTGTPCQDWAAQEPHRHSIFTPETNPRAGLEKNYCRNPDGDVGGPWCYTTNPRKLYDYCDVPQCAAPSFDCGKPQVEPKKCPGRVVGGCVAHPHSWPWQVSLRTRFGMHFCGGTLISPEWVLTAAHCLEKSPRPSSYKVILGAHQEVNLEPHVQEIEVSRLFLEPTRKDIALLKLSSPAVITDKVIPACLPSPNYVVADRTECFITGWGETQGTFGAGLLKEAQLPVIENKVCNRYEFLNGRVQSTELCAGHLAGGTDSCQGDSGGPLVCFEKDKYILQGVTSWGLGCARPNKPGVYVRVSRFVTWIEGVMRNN

[10] = tested on: AKT in MDA-MB-468 human breast cancer cell line; experiment: AKT activity (phospho-AKT substrate antibody); format: cell-based
Source text: as §1

[11] = molecular target: p300 acetyltransferase enzyme (Homo sapiens, UniProt Q09472); experiment: p300 acetyltransferase enzyme assays (immunoblot H3K9Ac / H3K27Ac); details: two sets of enzyme assays
Chain of p300 acetyltransferase enzyme (Q09472 whole entry): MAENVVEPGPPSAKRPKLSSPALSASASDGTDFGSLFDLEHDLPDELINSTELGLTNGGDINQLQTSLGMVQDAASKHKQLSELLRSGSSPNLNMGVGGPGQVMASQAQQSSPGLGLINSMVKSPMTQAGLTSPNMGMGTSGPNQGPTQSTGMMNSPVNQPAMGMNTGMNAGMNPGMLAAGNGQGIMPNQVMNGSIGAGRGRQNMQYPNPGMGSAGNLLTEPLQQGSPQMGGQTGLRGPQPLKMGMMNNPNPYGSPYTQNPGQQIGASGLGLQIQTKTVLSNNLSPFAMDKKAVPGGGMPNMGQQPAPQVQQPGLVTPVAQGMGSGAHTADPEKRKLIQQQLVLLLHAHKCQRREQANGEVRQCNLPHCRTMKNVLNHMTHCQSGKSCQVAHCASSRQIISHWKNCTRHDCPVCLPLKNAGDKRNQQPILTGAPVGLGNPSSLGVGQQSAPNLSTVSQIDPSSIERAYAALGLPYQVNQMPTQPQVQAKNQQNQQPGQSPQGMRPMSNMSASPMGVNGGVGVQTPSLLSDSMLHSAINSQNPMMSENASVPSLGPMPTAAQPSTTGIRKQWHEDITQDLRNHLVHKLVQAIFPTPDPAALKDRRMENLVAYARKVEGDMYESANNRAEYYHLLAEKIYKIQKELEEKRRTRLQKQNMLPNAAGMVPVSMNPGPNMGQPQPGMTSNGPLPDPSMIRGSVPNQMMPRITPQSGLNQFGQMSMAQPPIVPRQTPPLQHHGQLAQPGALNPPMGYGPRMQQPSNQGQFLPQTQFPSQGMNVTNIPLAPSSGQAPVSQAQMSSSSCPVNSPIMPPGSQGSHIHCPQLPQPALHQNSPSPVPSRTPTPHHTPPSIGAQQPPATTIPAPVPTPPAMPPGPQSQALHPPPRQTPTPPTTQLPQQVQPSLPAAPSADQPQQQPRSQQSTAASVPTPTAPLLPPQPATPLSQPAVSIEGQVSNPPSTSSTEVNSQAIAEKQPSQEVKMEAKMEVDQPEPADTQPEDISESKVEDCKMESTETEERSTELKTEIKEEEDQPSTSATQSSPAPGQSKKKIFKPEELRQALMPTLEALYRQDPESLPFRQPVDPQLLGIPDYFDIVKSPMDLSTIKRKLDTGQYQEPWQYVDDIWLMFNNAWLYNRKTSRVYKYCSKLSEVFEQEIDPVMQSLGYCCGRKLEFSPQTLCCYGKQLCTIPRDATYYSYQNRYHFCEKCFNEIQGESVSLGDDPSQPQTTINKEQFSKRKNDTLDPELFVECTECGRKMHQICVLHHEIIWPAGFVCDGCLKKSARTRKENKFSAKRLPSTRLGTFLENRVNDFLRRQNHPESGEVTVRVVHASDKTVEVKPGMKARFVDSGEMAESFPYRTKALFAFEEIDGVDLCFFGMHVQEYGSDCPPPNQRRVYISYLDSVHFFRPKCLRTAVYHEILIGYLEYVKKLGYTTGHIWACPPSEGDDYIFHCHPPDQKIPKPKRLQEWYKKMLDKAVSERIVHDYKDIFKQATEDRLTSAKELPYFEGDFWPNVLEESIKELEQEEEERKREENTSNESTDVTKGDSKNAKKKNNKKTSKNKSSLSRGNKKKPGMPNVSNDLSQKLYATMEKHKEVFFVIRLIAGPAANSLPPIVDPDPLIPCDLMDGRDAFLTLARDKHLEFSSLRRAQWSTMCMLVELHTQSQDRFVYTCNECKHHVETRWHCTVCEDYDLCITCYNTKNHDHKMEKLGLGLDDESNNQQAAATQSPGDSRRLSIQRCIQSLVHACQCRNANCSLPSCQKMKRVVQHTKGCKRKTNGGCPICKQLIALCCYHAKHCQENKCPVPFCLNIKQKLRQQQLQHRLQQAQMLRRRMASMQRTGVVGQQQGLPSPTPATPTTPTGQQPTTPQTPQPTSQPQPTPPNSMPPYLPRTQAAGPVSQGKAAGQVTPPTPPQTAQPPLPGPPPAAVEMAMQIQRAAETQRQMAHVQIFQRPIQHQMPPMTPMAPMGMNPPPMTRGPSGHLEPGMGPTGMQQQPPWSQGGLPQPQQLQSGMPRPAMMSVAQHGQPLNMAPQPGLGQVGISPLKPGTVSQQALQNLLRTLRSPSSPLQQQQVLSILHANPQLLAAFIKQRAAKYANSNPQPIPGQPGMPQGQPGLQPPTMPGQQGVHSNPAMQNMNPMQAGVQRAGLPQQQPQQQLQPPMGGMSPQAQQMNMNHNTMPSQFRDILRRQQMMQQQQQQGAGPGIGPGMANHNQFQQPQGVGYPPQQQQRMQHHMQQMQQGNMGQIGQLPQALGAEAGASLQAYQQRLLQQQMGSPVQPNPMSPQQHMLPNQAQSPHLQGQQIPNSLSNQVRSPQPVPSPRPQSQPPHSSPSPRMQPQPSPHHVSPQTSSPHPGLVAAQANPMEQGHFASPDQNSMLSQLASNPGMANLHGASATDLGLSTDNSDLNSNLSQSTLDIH
Method: This is measured by immunoblotting with antibodies that specifically recognize histone 3 (H3) acetylated (Ac) on lysine (K) number 9 or 27.

[12] = tested on: BT474 breast cancer cells; experiment: Markers of the mitotic phase (cyclin B, MPM2); format: cell-based; details: 1%
[13] = tested on: human keratinocytes (HaCaT); experiment: DNA synthesis (tritiated thymidine incorporation); format: cell-based; details: HaCaT non-transformed epithelial line; 24 h
plasmin [14] = molecular target: T1, plasmin; details: cited from earlier work
Target sequence in this assay (P00747 581-810 limits assumed, species assumed): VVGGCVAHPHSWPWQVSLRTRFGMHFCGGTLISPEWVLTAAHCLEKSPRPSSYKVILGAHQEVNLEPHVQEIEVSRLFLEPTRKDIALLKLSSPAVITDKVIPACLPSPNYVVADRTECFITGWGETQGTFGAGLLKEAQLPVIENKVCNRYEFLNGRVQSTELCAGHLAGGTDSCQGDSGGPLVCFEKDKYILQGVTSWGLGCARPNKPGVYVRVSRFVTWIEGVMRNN
Target sequence in this assay (P00747 97-580 partner limits assumed, species assumed): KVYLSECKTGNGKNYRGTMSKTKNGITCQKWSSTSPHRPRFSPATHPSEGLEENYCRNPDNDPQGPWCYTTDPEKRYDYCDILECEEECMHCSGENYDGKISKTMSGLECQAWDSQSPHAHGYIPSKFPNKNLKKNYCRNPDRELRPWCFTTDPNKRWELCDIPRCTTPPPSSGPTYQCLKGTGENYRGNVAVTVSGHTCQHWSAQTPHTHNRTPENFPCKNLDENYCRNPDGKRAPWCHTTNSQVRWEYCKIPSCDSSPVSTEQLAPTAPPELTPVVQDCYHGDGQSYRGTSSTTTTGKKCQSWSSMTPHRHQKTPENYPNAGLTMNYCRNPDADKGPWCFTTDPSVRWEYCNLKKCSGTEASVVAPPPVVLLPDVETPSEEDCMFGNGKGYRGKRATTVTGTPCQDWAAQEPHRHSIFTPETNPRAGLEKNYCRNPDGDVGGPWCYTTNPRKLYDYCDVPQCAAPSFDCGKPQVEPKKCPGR

cell cycle = experiment: Cell cycle study; format: cell-based
[15] = tested on: BT474 breast cancer cells; experiment: DNA synthesis (tritiated thymidine incorporation); format: cell-based; details: 24 h treatment, 0 to 8%
[16] = tested on: MDA-MB-468 breast cancer cells; experiment: Markers of the mitotic phase (cyclin B, MPM2); format: cell-based, human; details: 1%
[17] = tested on: MCF10A cells overexpressing the MYC oncogene; experiment: MTT assay, MYC overexpressing versus vector control cells; format: cell-based, human
Source text: as §1

MDA-MB 468 cells = experiment: MTT assay with tranexamic acid derivatives; format: cell-based, human; details: MDA-MB 468, 72 h, increasing concentrations
Method: MDA-MB 468 cells were plated at 6,250 cells per well in a 96-well plate and incubated overnight at 37° C. […] Cell viability was evaluated using an MTT assay.

[18] = tested on: BT474, MDA-MB-468, B16, KPPC, HMEC and HaCaT cell lines; experiment: DNA synthesis (tritiated thymidine incorporation), cell line panel; format: cell-based; details: 24 h treatment, 0 to 8%, DNA synthesis during a 3 h window
[19] = tested on: HCI-001 breast cancer cells; experiment: MTT cell viability assay; format: cell-based
[20] = intravenous doses of 80-100 mg/kg and above, e.g. during heart surgery; cited from earlier work
[21] = tested on: HCI-012/LVM2/LR10 drug-resistant, HER2+, metastatic breast cancer; experiment: Breast tumor growth in patient-derived model; format: in vivo, mice; details: orally, once daily, 375 mg/kg
[22] = tested on: broad array of cancer and epithelial cell lines; experiment: MTT cell viability assays with increasing concentrations (FIG. 2, FIG. 5); format: cell-based

NC[C@H]1CC[C@H](C(=O)O)CC1 [tranexamic acid]
proliferation (DNA synthesis) [1]: affects the proliferation
PD-L1 expression [2]: did not
non-melanoma skin cancer development (non-melanoma skin cancer): reduced
plasma MMP-9 and IL-6, skin plasmin, CC chemokine 2, macrophages, STAT3, cyclin D and VEGF-A (non-melanoma skin cancer): suppresses increases
protein lysine acetylation [3]: reduces protein lysine acetylation
p70s6k inhibition (S6K1 (p70s6k)): inhibits p70s6k
phosphorylation of the ribosomal S6 protein (S6K1 (p70s6k)): reduced phosphorylation of the ribosomal S6 protein
effect on histone acetylation in presence of the histone deacetylase inhibitor SAHA [4]: did not overcome the effects of the histone deacetylase inhibitor SAHA
histone lysine acetylation ([4]; particularly at higher concentrations): suppressed histone lysine acetylation
sensitivity compared to other cell lines tested (MTT) (MDA-MB-468 cells): most sensitive
cell viability (MTT) ([5]; SH-SY5Y neuroblastoma cells): decreased viability
sensitivity compared to other cell lines tested (MTT) ([5]; SH-SY5Y, N-Myc amplified / MYC overexpressed): most sensitive
histone acetylation compared with vehicle treatment [6]: suppressed histone acetylation
levels of lysine acetylation of cellular proteins [6]: reduces the levels of lysine acetylation
STAT3 phosphorylation on Serine 727 (STAT3): not Serine 727
STAT3 phosphorylation on Tyrosine 705 (STAT3): decreases STAT3 phosphorylation on Tyrosine 705
acetylation of histone H3 on lysine 9 (histone H3; carried out by other enzymes): not on lysine 9
acetylation of histone H3 on lysine 27 (histone H3; carried out by p300 and CBP): blocks acetylation
AKT activity [7]: suppressed AKT activity
PAI-1 levels / expression (PAI-1): without increasing PAI-1 levels
CDCP1 cleavage at lowest concentration (CDCP1 cleavage; 0.5%): good inhibition of CDCP1 cleavage
CDCP1 cleavage (CDCP1 cleavage; MDA-MB-231 breast cancer cell extracts): blocks CDCP1 cleavage
expression of EGFR ([8]; FIG. 8): decreases expression
EGFR downregulation ([8]; FIG. 8, as worded): did not increase
blood concentration required to inhibit formation of plasmin and provide antifibrinolysis (plasmin [9]): 10 to 20 µg/mL
AKT activity [10]: suppressed AKT activity
p300 acetyltransferase activity [11]: inhibits p300 activity
markers of the mitotic phase of the cell cycle (cyclin B, MPM2) [12]: elevates markers of the mitotic phase
proliferation (DNA synthesis) [13]: affects the proliferation
plasmin protease activity (plasmin [14]): directly inhibits plasmin protease activity
cell cycle arrest (cell cycle): causes G2/M-phase cell cycle arrest
sensitivity of DNA synthesis compared to other cell lines [15]: most sensitive to low concentrations
markers of the mitotic phase of the cell cycle (cyclin B, MPM2) [16]: elevates markers of the mitotic phase
sensitivity of MYC overexpressing cells versus unaltered control cells (MTT) [17]: significant increase in tranexamic acid sensitivity; also recorded: significantly more sensitive
cell viability (MTT) (MDA-MB 468 cells): reduced MDA-MB 468 cell viability
DNA synthesis / cell proliferation across cell lines [18]: suppresses the proliferation; also recorded: affected all the cell lines examined
cell viability (MTT) [19]: decreased viability
seizure risk [20]: risk of seizure
tumor growth versus vehicle (water) [21]: suppresses tumor growth more effectively than a vehicle
cell viability (MTT) across cell lines [22]: all lines are inhibited; also recorded: dose dependently suppresses the viability
